Measured values reported in publication PMC7949102 (The Journal of Biological Chemistry, 2021).

What was measured:
DdGlud2 = molecular target: T1, DdGlud2 (Dictyostelium discoideum, UniProt Q54VI3); assay: NADH formation at […] nm; assay type: biochemical; settings: activator; 1 mM GTP, 10 mM Glu, 1 mM NAD+; pH 8.0, 23 °C
T1 construct: gene glud2; full-length, His6-SUMO tag cleaved by ULP, E. coli BL21 Rosetta; elutes at 212 kDa
T1 sequence (Q54VI3 1-1042): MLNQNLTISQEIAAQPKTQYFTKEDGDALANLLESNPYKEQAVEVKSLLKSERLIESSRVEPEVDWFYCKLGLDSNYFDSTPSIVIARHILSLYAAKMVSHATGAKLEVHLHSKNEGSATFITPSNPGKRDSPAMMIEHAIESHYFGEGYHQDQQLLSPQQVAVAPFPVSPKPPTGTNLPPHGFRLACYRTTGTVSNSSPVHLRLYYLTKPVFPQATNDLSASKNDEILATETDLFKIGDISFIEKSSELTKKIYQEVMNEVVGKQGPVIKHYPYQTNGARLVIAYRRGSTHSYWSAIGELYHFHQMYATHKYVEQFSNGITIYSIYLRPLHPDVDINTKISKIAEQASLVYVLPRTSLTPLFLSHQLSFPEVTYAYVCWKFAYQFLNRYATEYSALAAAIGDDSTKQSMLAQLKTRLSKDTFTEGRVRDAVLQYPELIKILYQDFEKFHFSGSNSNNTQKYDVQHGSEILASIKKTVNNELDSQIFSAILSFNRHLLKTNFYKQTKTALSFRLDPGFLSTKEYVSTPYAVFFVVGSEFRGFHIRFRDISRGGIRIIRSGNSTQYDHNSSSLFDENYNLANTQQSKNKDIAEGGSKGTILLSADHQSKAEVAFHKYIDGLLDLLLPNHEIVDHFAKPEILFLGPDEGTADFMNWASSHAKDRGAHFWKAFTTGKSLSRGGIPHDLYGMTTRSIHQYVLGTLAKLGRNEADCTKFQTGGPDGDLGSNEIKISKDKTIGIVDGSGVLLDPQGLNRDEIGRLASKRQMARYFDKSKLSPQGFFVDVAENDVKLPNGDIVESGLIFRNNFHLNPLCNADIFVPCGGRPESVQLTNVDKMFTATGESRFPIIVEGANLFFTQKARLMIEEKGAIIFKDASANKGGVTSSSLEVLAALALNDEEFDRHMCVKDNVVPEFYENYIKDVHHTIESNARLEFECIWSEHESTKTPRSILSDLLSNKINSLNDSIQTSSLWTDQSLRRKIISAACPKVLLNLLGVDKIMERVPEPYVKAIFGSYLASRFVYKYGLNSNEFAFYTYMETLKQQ

Ltuc1293 = molecular target: T2, Ltuc1293 (Legionella tucsonensis, UniProt A0A0W0ZWS2); assay type: biochemical
T2 construct: gene Ltuc_1293

Llo2453 = molecular target: T3, Llo2453 (Legionella longbeachae, UniProt D3HKA9); assay type: biochemical
T3 construct: gene LLO_2453

Lart1 = Lart1 (Legionella pneumophila, UniProt Q5ZZ30); settings: 250 μM etheno-NAD+, 0-8 mM nicotinamide, 0.5 mg/ml DdGlud2; pH 7.5, 100 mM NaCl, room temperature
purified protein = substrate: N[C@@H](CCC(=O)O)C(=O)O; assay: purified protein; settings: 5 mM NAD+, 100 mM Tris-HCl pH 8.0, 0.1 mg/ml BSA, 1 mM DTT, 23 °C, oxidative deamination
SEC = molecular target: the molecule itself; assay: SEC

Sequence of Lart1 (Q5ZZ30 whole entry, looked up): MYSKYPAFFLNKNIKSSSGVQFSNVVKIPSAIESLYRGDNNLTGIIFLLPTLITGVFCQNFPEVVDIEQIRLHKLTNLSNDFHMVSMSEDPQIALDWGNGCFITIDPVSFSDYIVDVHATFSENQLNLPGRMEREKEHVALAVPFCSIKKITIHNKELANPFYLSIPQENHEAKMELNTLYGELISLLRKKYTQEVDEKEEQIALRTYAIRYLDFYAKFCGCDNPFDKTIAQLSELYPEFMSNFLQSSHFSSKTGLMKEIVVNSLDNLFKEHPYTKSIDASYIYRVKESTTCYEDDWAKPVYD
T2 sequence (A0A0W0ZWS2 1-330): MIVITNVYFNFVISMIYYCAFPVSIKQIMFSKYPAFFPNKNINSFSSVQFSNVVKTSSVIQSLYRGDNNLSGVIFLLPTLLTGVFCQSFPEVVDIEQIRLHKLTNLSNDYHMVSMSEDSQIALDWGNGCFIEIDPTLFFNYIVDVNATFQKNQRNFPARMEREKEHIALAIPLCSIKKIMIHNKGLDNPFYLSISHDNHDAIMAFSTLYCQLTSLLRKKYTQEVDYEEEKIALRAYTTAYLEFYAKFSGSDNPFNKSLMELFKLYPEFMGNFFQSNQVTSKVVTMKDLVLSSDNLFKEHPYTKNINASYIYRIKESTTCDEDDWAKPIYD
T3 sequence (D3HKA9 1-303): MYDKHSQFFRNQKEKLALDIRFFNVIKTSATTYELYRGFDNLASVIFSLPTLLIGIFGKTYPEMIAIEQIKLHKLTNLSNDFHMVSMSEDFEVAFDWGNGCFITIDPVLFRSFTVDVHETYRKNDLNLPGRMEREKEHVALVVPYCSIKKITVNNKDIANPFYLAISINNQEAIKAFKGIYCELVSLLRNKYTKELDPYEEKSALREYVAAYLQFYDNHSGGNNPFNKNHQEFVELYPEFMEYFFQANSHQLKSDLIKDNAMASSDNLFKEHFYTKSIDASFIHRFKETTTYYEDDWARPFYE

Nc1nc2c(ncn2[C@@H]2O[C@H](COP(=O)(O)OP(=O)(O)OP(=O)(O)O)[C@@H](O)[C@H]2O)c(=O)[nH]1 [GTP]
fold stimulation at 1 mM (DdGlud2): 2.5 fold

NC(=O)c1ccc[n+]([C@@H]2O[C@H](COP(=O)(O)OP(=O)(O)OC[C@H]3O[C@@H](n4cnc5c4ncn4ccnc54)[C@H](O)[C@@H]3O)[C@@H](O)[C@H]2O)c1 [etheno-NAD+]
ADP-ribosylation of DdGlud2, anti-ethenoadenosine immunoblot (Ltuc1293): ADP-ribosylated DdGlud2 in assays using both etheno-NAD+ and biotin-NAD+ as substrates | ADP-ribosylation of DdGlud2, anti-ethenoadenosine immunoblot (Llo2453): ADP-ribosylated DdGlud2 in assays using both etheno-NAD+ and biotin-NAD+ as substrates

NC(=O)c1cccnc1 [nicotinamide]
inhibition (Lart1): Lart1 ADP ribosylation was inhibited by free nicotinamide in ≥ twofold excess of NAD+

B1: DdGlud2 (Dictyostelium discoideum) (protein)
chain: T1 sequence (Q54VI3 1-1042)
Km (purified protein): 18.53 (95% CI 10.72, 32.15) mM

B2: Dictyostelium discoideum Glud2 (NAD+-dependent glutamate dehydrogenase of the 115-kDa class) (enzyme, UniProt Q54VI3 1-1042, looked up)
chain: T1 sequence (Q54VI3 1-1042)
notes: also called DdGlud2; Dictyostelium Glud2; not shown: 6X-His, N-terminal, cleaved; SUMO (yeast SMT3), N-terminal, cleaved
stoichiometry N (SEC): 2
